From ChEMBL document CHEMBL1201862, “PubChem BioAssay data set” (2004)
Several values for one entry are separate records, joined by “and”; a condition that tells them apart may be missing. Identical values can stand only once.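 Compound exposure: 48 hours, 5 concentrations, 96-well plates. GI50: concentration for 50% inhibition of growth.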 Activity calls are given as the source filed them. No stated cut-off is given here; in the data, active = GI50 up to about 1.1 µM and inactive = higher.

Tests used:
Assay in all cases: DTP human tumour cell line panel, 48 h
[1] = tested on: UACC-257
[2] = tested on: SF-295
[3] = tested on: RXF 393
[4] = tested on: SW-620
[5] = tested on: K562
[6] = tested on: IGROV-1
[7] = tested on: SF-539
[8] = tested on: U-251
[9] = tested on: SNB-75
[10] = tested on: HT-29
[11] = tested on: CCRF-CEM
[12] = tested on: MOLT-4
[13] = tested on: EKVX
[14] = tested on: LOX IMVI
[15] = tested on: OVCAR-5
[16] = tested on: NCI-H522

Measured: GI50

COC1/C(=C\C(=O)OC(C)(C)C)c2ccccc2N1C(C)=O (stereo not given)
inactive: [1] > 100 µM | [2] > 100 µM | [3] 26.6 µM | [4] > 100 µM | [5] > 100 µM | [6] > 100 µM | [7] > 100 µM | [8] > 100 µM | [9] > 100 µM | [10] > 100 µM | [11] > 100 µM | [12] 81.7 µM | [13] > 100 µM

COC(=O)/C(=C/c1ccc(OC)cc1)NC(=O)c1ccccc1
inactive: [1] > 100 µM | [2] > 100 µM | [3] > 100 µM | [4] > 100 µM | [14] > 100 µM | [5] > 100 µM | [6] > 100 µM | [7] > 100 µM | [8] > 100 µM | [15] > 100 µM | [9] > 100 µM | [10] > 100 µM | [11] 2 µM | [13] > 100 µM

Nc1ncnc2c1ncn2C1CC(OCc2ccccc2[N+](=O)[O-])C(CO)O1 (stereo not given)
inactive: [1] 18.5 µM | [2] 15.6 µM | [3] 5.38 µM | [4] 36 µM | [14] 20.9 µM | [5] 16.1 µM | [6] 28.9 µM | [7] 44.5 µM | [8] 24.2 µM | [15] > 50 µM | [10] 17.5 µM | [11] 16.7 µM | [16] 13.7 µM | [12] 18.4 µM | [13] 33 µM

C=CCN1/C(=C2\SC(=S)N(c3ccc(C)cc3)C2=O)Sc2c1nc[nH]c2=O
inactive: [1] > 100 µM | [2] 88.7 µM | [3] 26.4 µM | [4] 65.3 µM | [14] 33.9 µM | [5] > 100 µM | [6] 64.9 µM | [7] 48.3 µM | [8] 79.8 µM | [15] > 100 µM | [10] > 100 µM | [11] > 100 µM | [16] 59.2 µM | [12] 58.9 µM | [13] > 100 µM

Nc1nnc2c(-c3ccccc3)n[nH]c2n1
inactive: [1] 50.7 µM | [2] 67 µM | [3] 34.1 µM | [4] 54.7 µM | [14] 50.6 µM | [5] 39.9 µM | [7] 24.8 µM | [15] > 100 µM | [10] 24.4 µM | [11] 18.5 µM | [16] > 100 µM | [12] 21.7 µM | [13] 5.9 µM

CC(C)OP(=S)(NC(=S)c1ccccc1)OC(C)C
inactive: [1] > 100 µM | [2] 76.2 µM | [4] > 100 µM | [14] > 100 µM | [5] > 100 µM | [6] > 100 µM | [7] > 100 µM | [8] > 100 µM | [15] > 100 µM | [9] > 100 µM | [10] > 100 µM | [11] > 100 µM | [12] > 100 µM | [13] > 100 µM

COC(=O)CC(C(C(C)=O)C(=O)OCc1ccccc1)N1C(=O)OC(c2ccccc2)C1c1ccccc1 (stereo not given)
inactive: [2] 19.5 µM and 30.8 µM | [4] > 100 µM | [14] 78.5 µM | [5] 68.5 µM and 71.3 µM | [6] > 100 µM | [8] 96.6 µM and 75.5 µM | [10] > 100 µM | [11] 72.4 µM and 73.8 µM | [16] 38.3 µM and 22.9 µM | [12] 36.4 µM and 42.3 µM | [13] 64.4 µM
